Measurements as given in patent US20070259094A1, “N-acetylglucosamine as a food and beverage additive” (priority 2002, published 2007).
Read-outs that look alike come from different tables or passages of the source.

How the values were obtained:
[1] = tested on: IL-1β-induced NO production in normal human articular chondrocytes; conditions: cited from earlier work; for effect on IL-1β-induced NO production: normal human articular chondrocytes; for Inhibitory Activity on IL-1β induced NO Production: table of various sugars
[2] = cited from earlier work; for half-life: doses as high as 20 grams per human subject; for adverse events: five subjects
COX-1 = conditions: constitutively expressed, human chondrocytes; cited from earlier work
[3] = tested on: severe treatment-resistant inflammatory bowel disease; conditions: cited from earlier work
IL-6 = conditions: cited from earlier work; for inhibiting the production of IL-6: human chondrocytes stimulated with IL-1
[4] = Bran muffin baking behaviour at 400° F. (204° C.); type: physicochemical; conditions: bran muffins baked at 204° C.
Description: Measure out 4 times 415 mL dry muffin mix (sufficient to make 6 muffins each) to make up the following formulae
Add to each dry mix 160 mL of water and ¼ of egg mixture and mix thoroughly.
Pour equal amounts into 6 muffin cups for each of the formulae.
Preheat oven to 400° F. or 204° C., bake each formula separately and observing cooking behaviour.

intestinal mucosa [5] = assay: Incorporation of glucosamine and N-acetylglucosamine into glycoproteins of intestinal mucosa in vitro; type: cell-based, human; conditions: normal subjects, on average
Description: Inflammatory conditions can also interfere with the incorporation of glucosamine into glycosaminoglycans. Intestinal mucosal from patients with ulcerative colitis and Crohn's disease and from patients without inflammatory disease were studied in vitro. N-acetylglucosamine is preferentially incorporated into glycoproteins over glucosamine. In normal subjects—ratio ranges were from 0.04 to 0.26 with a mean 0.097. Thus on average 10 times more N-acetylglucosamine is incorporated into macromolecules than glucosamine. In IBD the mean ratio of incorporation of glucosamine to N-acetylglucosamine is 0.039 for Crohn's and 0.031 for ulcerative colitis. In other words, 25 to 32 times more N-acetylglucosamine was incorporated into macromolecules compared to glucosamine (2).

COX-2 = conditions: cited from earlier work; for inhibiting the production of COX-2: human chondrocytes stimulated with IL-1
pH of aqueous solution = type: physicochemical; conditions: for pH of solution: 2 grams in 180 mL of water
Description: Two grams of glucosamine sulphate in 180 mL of water gives a solution with a pH of 6.06 and glucosamine hydrochloride gives a solution with a pH of 6.07.
A solution of 2 grams of N-acetylglucosamine in 180 mL of water has a pH of 7.40.

Inducible NO Synthetase = conditions: cited from earlier work; for inhibiting the production of nitric oxide synthetase: human chondrocytes stimulated with IL-1
intestinal mucosa [6] = conditions: cited from earlier work
[7] = cited from earlier work
[8] = cited from earlier work; for absolute bioavailability: compared with IV at 100%
[9] = tested on: primary knee osteoarthritis; conditions: cited from earlier work
osteoarthritis (knee) = conditions: 4-week course, cited from earlier work; for symptoms of osteoarthritis: glucosamine sulphate 1,500 mg, ibuprofen 1,200 mg
[10] = tested on: osteoarthritis of the temporomandibular joint; conditions: cited from earlier work; for patients improved (positive clinical response = 20% decrease TMJ pain with function): GS 500 mg tid, ibuprofen 400 mg tid, p=0.73 between groups; for number of patients improved (positive clinical response): of 21 GS and 18 ibuprofen completers
[11] = rectal administration as sole therapy
[12] = IL-1β-stimulated human chondrocytes
[13] = number of patients of 106, three years

O=C[C@H](O)[C@@H](O)[C@H](O)[C@H](O)C(=O)O [Glucuronic Acid]
effect on IL-1β-induced NO production [1]: do not express this activity
Inhibitory Activity on IL-1β induced NO Production [1]: Nil

CC(=O)N[C@@H]1C(O)O[C@H](CO)[C@@H](O)[C@@H]1O (stereo partly drawn) [N-Acetylmannosamine]
effect on IL-1β-induced NO production [1]: do not express this activity
Inhibitory Activity on IL-1β induced NO Production [1]: Nil

CC(=O)N[C@H]1C(O)O[C@H](CO)[C@@H](O)[C@@H]1O (stereo partly drawn) [N-Acetylglucosamine, N-acetylglucosamine]
half-life ([2]; IV): 3.67 h
blood sugar when administered without insulin ([2]; IV, human): Neither agent showed a rise in blood sugar
administered dose excreted in the urine ([2]; IV, in 24 hours): 54%
adverse events [2]: no adverse events reported
ability to inhibit IL-1β-induced NO production relative to glucosamine ([1]; 10 mM concentration): 5 times
effect on IL-1β-induced NO production [1]: inhibit
Inhibitory Activity on IL-1β induced NO Production [1]: Strong
COX-1 Expression, Protein (COX-1): No Inhibition
adverse side-effects of treatment ([3]; 3 to 6 grams daily in three divided doses): no adverse side-effects of treatment were noted in any patient
histology in all cases biopsied ([3]; in vivo): evidence of histological improvement
children with symptomatic Crohn's stricture requiring surgery ([3]; of 7, mean follow-up >2.5 years): 3
children showing clear improvement ([3]; oral adjunct therapy, 3-6 g daily, 12 children): Eight
children requiring resection ([3]; oral adjunct therapy, 12 children): four
cases of remission ([3]; rectal administration as sole therapy, nine children): two
cases of clear improvement [3, 11]: three
cases of no effect [3, 11]: two
IL-6 Production (IL-6; [12]): inhibits
inhibiting the production of IL-6 (IL-6): inhibiting
stability in the baking process [4]: stable during the baking process
times more N-acetylglucosamine incorporated into macromolecules than glucosamine (intestinal mucosa [5]): 10 times
COX-2 Expression, Protein (COX-2; [12]): inhibits
COX-2 Expression, mRNA (COX-2; [12]): inhibits
inhibiting the production of COX-2 (COX-2): inhibiting
pH (1% in water) (pH of aqueous solution): 7.4
pH of solution (pH of aqueous solution): 7.40
Inducible NO Synthetase Expression, Protein (Inducible NO Synthetase; [12]): inhibits
Inducible NO Synthetase Expression, mRNA (Inducible NO Synthetase; [12]): inhibits
inhibiting the production of nitric oxide synthetase (Inducible NO Synthetase): inhibiting

CC(=O)N[C@@H]1[C@@H](O)[C@@H](O)[C@@H](CO)O[C@@H]1O [N-Acetylgalactosmine]
Inhibitory Activity on IL-1β induced NO Production [1]: Strong

Cl.N[C@H]1C(O)O[C@H](CO)[C@@H](O)[C@@H]1O (stereo partly drawn) [Glucosamine hydrochloride]
half-life ([2]; IV): 2.5 h
adverse events [2]: no adverse events reported
blood sugar when administered with 7 units of insulin ([2]; human, in vivo, iv): showed a rise in blood sugar
blood sugar when administered without insulin ([2]; human, in vivo, iv): Neither agent showed a rise in blood sugar
stability in the baking process [4]: break down in the baking process
pH (1% in water) (pH of aqueous solution): 6.07
pH of solution (pH of aqueous solution): 6.07

N[C@H]1C(O)O[C@H](CO)[C@@H](O)[C@@H]1O (stereo partly drawn) [Glucosamine]
effect on IL-1β-induced NO production [1]: inhibit
Inhibitory Activity on IL-1β induced NO Production [1]: Weak
inhibiting the production of IL-6 (IL-6): not effective
mean ratio of incorporation of glucosamine to N-acetylglucosamine (intestinal mucosa [6]; Crohn's): 0.039
ratio of incorporation of glucosamine to N-acetylglucosamine, mean (intestinal mucosa [6]; normal subjects): 0.097
mean ratio of incorporation of glucosamine to N-acetylglucosamine (intestinal mucosa [6]; ulcerative colitis): 0.031
total body insulin sensitivity ([7]; forearm glucosamine infusion, twenty human volunteers): did not affect
baseline arteriovenous glucose differences ([7]; glucosamine infusion): not affected
forearm blood flow ([7]; glucosamine infusion): did not alter
forearm skeletal muscle glucose uptake ([7]; glucosamine infusion): did not affect
inhibiting the production of COX-2 (COX-2): not effective
absolute bioavailability ([8]; IM administration): 93%
absolute bioavailability ([8]; oral administration): 44%
administered dose excreted by the kidneys ([8]; oral route): about 10%
administered dose excreted via the feces ([8]; oral route): 11%
inhibiting the production of nitric oxide synthetase (Inducible NO Synthetase): not effective

N[C@H]1C(O)O[C@H](CO)[C@@H](O)[C@@H]1O.O=S(=O)(O)O (stereo partly drawn) [Glucosamine Sulphate]
significant joint space narrowing ([9]; 1.5 grams per day, three years, versus placebo, p<0.05): did not
fasting plasma glucose concentrations ([9]; during the study): decreasing slightly
Withdrawal from Study Due to Adverse Events [9, 13]: 21
Withdrawal from Study, Lack of Efficacy [9, 13]: 3
incidence and type of adverse events versus placebo ([9]; three-year period): not different between the two groups
routine laboratory tests (system organs, metabolic functions) ([9]; three-year period): did not show any abnormalities
stability in the baking process [4]: break down in the baking process
pH (1% in water) (pH of aqueous solution): 6.06
pH of solution (pH of aqueous solution): 6.06
patients dropped out because of adverse events / side effects (osteoarthritis (knee)): None
symptoms of osteoarthritis (osteoarthritis (knee)): reduced symptoms
patients improved (positive clinical response = 20% decrease TMJ pain with function) ([10]; 90 days): 71%
patients discontinued due to dizziness ([10]; 90 days): one
patients discontinued due to stomach upset ([10]; 90 days): one
decrease in TMJ pain with function and acetaminophen use, between-group comparison ([10]; between Day 90 and 120, compared with ibuprofen): significantly greater decrease
number of patients improved (positive clinical response) [10]: Fifteen

CC(C)Cc1ccc(C(C)C(=O)O)cc1 (stereo not drawn) [ibuprofen]
patients dropped out because of adverse events / side effects (osteoarthritis (knee)): 10%
symptoms of osteoarthritis (osteoarthritis (knee)): reduced symptoms
patients improved (positive clinical response = 20% decrease TMJ pain with function) ([10]; 90 days): 61%
patients discontinued due to inadequate pain control ([10]; 90 days): one
patients discontinued due to stomach upset ([10]; 90 days): 3
number of patients improved (positive clinical response) [10]: 11
